Test results published in PubChem BioAssay AID248 (DTP/NCI, 2004).
Several values for one entry are separate records, joined by “and”; a condition that tells them apart may be missing. Equal entries are not always repeated. Inconclusive results and toxic doses are left out. Rule as the data show it: active = T/C of 150% or more; inactive = T/C below 125%.

System: L1210 leukemia ip in BDF1 mice, survival T/C
Test: NCI In Vivo Anticancer Drug Screen. Data for tumor model L1210 Leukemia (intraperitoneal) in B6D2F1 (BDF1) mice
Settings: endpoint: mean survival time, higher = longer survival
In short: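 Value reflects the ratio of survival in compound-treated mice to survival in vehicle-treated controls, with both groups carrying the same transplanted tumor.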

[1] = dose: 25.0 mg/kg/injection, schedule: Q04DX002 (ip), vehicle: saline with Tween-80
[2] = dose: 50.0 mg/kg/injection, schedule: Q04DX002 (ip), vehicle: saline with Tween-80
[3] = dose: 100.0 mg/kg/injection, schedule: Q04DX002 (ip), vehicle: saline with Tween-80
[4] = dose: 100.0 mg/kg/injection, schedule: Q01DX009 (ip), vehicle: Klucel (hydroxypropylcellulose) (HPC)
[5] = dose: 100.0 mg/kg/injection, schedule: Q04DX003 (ip), vehicle: Klucel (hydroxypropylcellulose) (HPC)
[6] = dose: 200.0 mg/kg/injection, schedule: Q01DX009 (ip), vehicle: Klucel (hydroxypropylcellulose) (HPC)
[7] = dose: 200.0 mg/kg/injection, schedule: Q04DX003 (ip), vehicle: Klucel (hydroxypropylcellulose) (HPC)
[8] = dose: 100.0 mg/kg/injection, schedule: Q01DX001 (ip), vehicle: Klucel (hydroxypropylcellulose) (HPC)
[9] = dose: 200.0 mg/kg/injection, schedule: Q01DX001 (ip), vehicle: Klucel (hydroxypropylcellulose) (HPC)
[10] = dose: 400.0 mg/kg/injection, schedule: Q01DX001 (ip), vehicle: Klucel (hydroxypropylcellulose) (HPC)
[11] = dose: 400.0 mg/kg/injection, schedule: Q01DX009 (ip), vehicle: Klucel (hydroxypropylcellulose) (HPC)
[12] = dose: 400.0 mg/kg/injection, schedule: Q04DX003 (ip), vehicle: Klucel (hydroxypropylcellulose) (HPC)
[13] = dose: 100.0 mg/kg/injection, schedule: Q04DX003 (ip), vehicle: saline with Tween-80
[14] = dose: 200.0 mg/kg/injection, schedule: Q04DX003 (ip), vehicle: saline with Tween-80
[15] = dose: 400.0 mg/kg/injection, schedule: Q04DX003 (ip), vehicle: saline with Tween-80
[16] = dose: 100.0 mg/kg/injection, schedule: Q01DX009 (ip), vehicle: saline with Tween-80
[17] = dose: 200.0 mg/kg/injection, schedule: Q01DX009 (ip), vehicle: saline with Tween-80
[18] = dose: 400.0 mg/kg/injection, schedule: Q01DX009 (ip), vehicle: saline with Tween-80

Measured: T/C

CC(C)(Br)CNC(=O)c1cccc([N+](=O)[O-])c1
inactive: dose: 75.0 mg/kg/injection, schedule: Q01DX009 (ip), vehicle: Klucel (hydroxypropylcellulose) (HPC) 103 % of control | dose: 75.0 mg/kg/injection, schedule: Q04DX003 (ip), vehicle: Klucel (hydroxypropylcellulose) (HPC) 95 % of control | dose: 150.0 mg/kg/injection, schedule: Q01DX009 (ip), vehicle: Klucel (hydroxypropylcellulose) (HPC) 101 % of control | dose: 150.0 mg/kg/injection, schedule: Q04DX003 (ip), vehicle: Klucel (hydroxypropylcellulose) (HPC) 97 % of control | dose: 300.0 mg/kg/injection, schedule: Q01DX009 (ip), vehicle: Klucel (hydroxypropylcellulose) (HPC) 86 % of control | dose: 300.0 mg/kg/injection, schedule: Q04DX003 (ip), vehicle: Klucel (hydroxypropylcellulose) (HPC) 92 % of control

COc1ccc(NC(=O)Nc2cccc([N+](=O)[O-])c2OC)cc1
inactive: [1] 93 % of control | [2] 96 % of control | [3] 89 % of control

CC(=O)C1(c2ccccc2)OC1c1ccccc1 (stereo not drawn)
inactive: dose: 50.0 mg/kg/injection, schedule: Q01DX009 (ip), vehicle: Klucel (hydroxypropylcellulose) (HPC) 96 % of control | [4] 112 % of control | [5] 90 % of control | [6] 96 % of control | [7] 95 % of control

Cc1ccc(S(=O)(=O)Nc2ccccc2OS(=O)(=O)c2ccc(C)cc2)cc1
inactive: [8] 95 % of control | [4] 106 % of control | [5] 101 % of control | [9] 89 % of control | [6] 108 % of control | [7] 100 % of control | [10] 93 % of control | [11] 106 % of control | [12] 97 % of control

CC1(CCCCCBr)OCCO1
inactive: [4] 97 % of control | [6] 100 % of control | [11] 94 % of control

O=C(COc1ccccc1[N+](=O)[O-])Nc1cccnc1
inactive: [13] 104 % of control | [14] 98 % of control | [15] 98 % of control

CCOC(=O)C1CN(C2CCCCC2)CCC1=O (stereo not drawn)
inactive: dose: 18.75 mg/kg/injection, schedule: Q01DX009 (ip), vehicle: saline 93 % of control | dose: 37.5 mg/kg/injection, schedule: Q01DX009 (ip), vehicle: saline 92 % of control | dose: 37.5 mg/kg/injection, schedule: Q04DX003 (ip), vehicle: saline 98 % of control | dose: 75.0 mg/kg/injection, schedule: Q01DX001 (ip), vehicle: saline 102 % of control | dose: 75.0 mg/kg/injection, schedule: Q01DX009 (ip), vehicle: saline 93 % of control | dose: 75.0 mg/kg/injection, schedule: Q04DX003 (ip), vehicle: saline 100 % of control | dose: 150.0 mg/kg/injection, schedule: Q01DX001 (ip), vehicle: saline 95 % of control | dose: 150.0 mg/kg/injection, schedule: Q04DX003 (ip), vehicle: saline 94 % of control

CCOC(=O)c1ccc(NC(=O)Nc2ccc(Cl)cc2)cc1
inactive: [4] 97 % of control | [5] 96 % of control | [6] 104 % of control | [7] 104 % of control | [11] 97 % of control | [12] 100 % of control

CC(CC(=O)O)c1ccc(C(C)(C)C)cc1 (stereo not drawn)
inactive: [5] 95 % of control | [7] 107 % of control | [12] 98 % of control

C[N+](C)(C)CCCBr
inactive: dose: 10.0 mg/kg/injection, schedule: Q01DX001 (ip), vehicle: saline 112 % of control | dose: 20.0 mg/kg/injection, schedule: Q01DX001 (ip), vehicle: saline 89 % of control

C#CP(CCCC)CCCC
inactive: [1] 97 % of control | [2] 91 % of control | [3] 95 % of control and 102 % of control

O=C(c1ccccc1)C1(c2ccccc2)OC1(C(=O)c1ccccc1)c1ccccc1 (stereo not drawn)
inactive: [8] 94 % of control | [16] 92 % of control | [9] 94 % of control | [17] 101 % of control | [10] 87 % of control | [18] 95 % of control

Clc1ccc2c(c1)C(N1CCOCC1)c1cc(Cl)cc(Cl)c1-2 (stereo not drawn)
inactive: [8] 102 % of control | [5] 98 % of control | [9] 92 % of control | [7] 96 % of control | [10] 96 % of control | [12] 94 % of control

O=S(c1ccccc1)c1ccc2cccccc1-2 (stereo not drawn)
inactive: dose: 100.0 mg/kg/injection, schedule: Q01DX001 (ip), vehicle: carboxymethylcellulose (CMC) 91 % of control | dose: 200.0 mg/kg/injection, schedule: Q01DX001 (ip), vehicle: carboxymethylcellulose (CMC) 94 % of control | dose: 400.0 mg/kg/injection, schedule: Q01DX001 (ip), vehicle: carboxymethylcellulose (CMC) 100 % of control

NC(CSS(=O)(=O)O)=NCCCCCN=C(N)CSS(=O)(=O)O
inactive: dose: 12.5 mg/kg/injection, schedule: Q04DX003 (ip), vehicle: saline with Tween-80 108 % of control | dose: 25.0 mg/kg/injection, schedule: Q04DX003 (ip), vehicle: saline with Tween-80 102 % of control | dose: 50.0 mg/kg/injection, schedule: Q04DX003 (ip), vehicle: saline with Tween-80 96 % of control

O=c1c(N2CCOCC2)c(N2CCOCC2)c1=O
inactive: [16] 100 % of control | [13] 104 % of control | [17] 100 % of control | [14] 103 % of control | [18] 100 % of control | [15] 95 % of control

CCC(=O)c1ccc(NC(N)=S)cc1
inactive: dose: 20.0 mg/kg/injection, schedule: Q01DX005 (ip), vehicle: saline with Tween-80 94 % of control | dose: 40.0 mg/kg/injection, schedule: Q01DX005 (ip), vehicle: saline with Tween-80 95 % of control | dose: 80.0 mg/kg/injection, schedule: Q01DX005 (ip), vehicle: saline with Tween-80 94 % of control | dose: 160.0 mg/kg/injection, schedule: Q01DX005 (ip), vehicle: saline with Tween-80 101 % of control

O=C1CC(C(=O)O)C(c2ccccc2F)O1 (stereo not drawn)
inactive: [5] 98 % of control | [7] 101 % of control | [12] 103 % of control

CCc1cc(C(=O)NC(CCC(=O)O)C(=O)O)ccc1NCc1cnc2nc(N)[nH]c(=O)c2n1 (stereo not drawn)
inactive: dose: 50.0 mg/kg/injection, schedule: Q01DX001 (ip), vehicle: saline with Tween-80 106 % of control | dose: 100.0 mg/kg/injection, schedule: Q01DX001 (ip), vehicle: saline with Tween-80 100 % of control | dose: 200.0 mg/kg/injection, schedule: Q01DX001 (ip), vehicle: saline with Tween-80 100 % of control

NCC(S)c1ccc(Cl)cc1 (stereo not drawn)
inactive: dose: 12.5 mg/kg/injection, schedule: Q01DX009 (ip), vehicle: saline 114 % of control | dose: 25.0 mg/kg/injection, schedule: Q01DX009 (ip), vehicle: saline 101 % of control | dose: 50.0 mg/kg/injection, schedule: Q01DX009 (ip), vehicle: saline 97 % of control
